Reference: the supplement of paper PMC5412046
Where a name gives a salt, the structure may show the parent alone.

Tests used:
SB.mhdgc-1 = test: AC50 for growth inhibition (viability) (log10 M); higher = less potent; settings: SB.mhdgc-1 (hereditary c.1380delA CDH1 gastric cancer)
Summary of the method: (§1)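 Values are log half-maximal activity concentrations from four-parameter fits of DMSO-normalised viability, restricted to high-quality curve classes. Patient-derived gastric cancer cells, hereditary or sporadic, were plated at 500 cells per 1536 well in 5 μL medium and given 23 nL compound in DMSO by pintool across 11 threefold dilutions, the top final concentration being 46 μM. Viability was read by ViewLux luminescence after 48 h and a 30 min CellTiter-Glo step at room temperature.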

SB.msgc-1 = test: as above; settings: SB.msgc-1 (sporadic gastric cancer)
Summary of the method: as §1

Row | SMILES | AC50 for growth inhibition (log10 M) (SB.mhdgc-1) | AC50 for growth inhibition (log10 M) (SB.msgc-1)
1 | C[C@@H]1CC[C@@]2(OC1)O[C@H]3C[C@H]4[C@@H]5C/C=C6/C[C@H](CC[C@]6(C)[C@H]5CC[C@]4(C)[C@H]3[C@@H]2C)O[C@@H]7O[C@H](CO)[C@@H](O[C@@H]8O[C@@H](C)[C@H](O)[C@@H](O)[C@H]8O)[C@H](O)[C@H]7O[C@@H]9O[C@@H](C)[C@H](O)[C@@H](O)[C@H]9O [Dioscin] | -5.38 | -5.23
2 | C#Cc1cccc(Nc2ncnc3cc(OC)c(OCCCCCCC(=O)NO)cc23)c1 [CUDC-101] | -8.28 | -7.53
3 | COC1=CC=CC2=C1C(=NC(=N2)C3=CC=CS3)NN4C(=O)\C=C(C)/C4=O | -5.18 | -4.88
4 | C[C@@H]1CC[C@@]2(CC[C@]3(C)\C(=C/C[C@@H]4[C@@]5(C)CC[C@H](O)C(C)(C)[C@@H]5CC[C@@]34C)[C@@H]2[C@H]1C)C(O)=O [Ursolic acid] | -4.67 | -4.47
5 | O=C(c1ccccc1)c1ccc2n1CCC2C(=O)O (centres undefined) [Ketorolac] | -5.98 | -5.78
6 | C[N]1C=C(C=N1)C2=C3\C=N/NC(=O)C4=C3C(=CC(=C4)NC(=O)[C@H](N)C5CCCCC5)[NH]2 | -6.08 | -5.63
7 | CCCCN1CCC(CNC(=O)c2c3n(c4ccccc24)CCCO3)CC1 [Piboserod hydrochloride] | -5.53 | -5.53
8 | C[C@H](NCc1ccc(OCc2cccc(F)c2)cc1)C(N)=O [Safinamide mesilate] | -5.08 | -4.78
9 | CCN1CCN(C(=O)Cc2ccc(Nc3ncc(F)c(Nc4ccc(C(=O)Nc5ccccc5Cl)cc4)n3)cc2)CC1 [Aurora A Inhibitor I] | -4.78 | -4.73
10 | COc1cc(C(C)C)c(Oc2cnc(NC(CO)CO)nc2N)cc1I [Ro 51] | -6.63 | -6.18
11 | C[C@](O)(CS(=O)(=O)c1ccc(F)cc1)C(=O)Nc1ccc(C#N)c(C(F)(F)F)c1 [(R)-Bicalutamide] | -6.33 | -6.03
12 | Cc1ccc(NC(=O)c2cccc(N(C)C)c2)cc1NC(=O)c1ccc(O)cc1 | -6.48 | -5.78
13 | COc1cc2c(cc1-c1c(C)noc1C)ncc1[nH]c(=O)n([C@H](C)c3ccccn3)c12 [I-BET151] | -4.93 | -5.28
14 | COc1cc(C)c(Sc2cnc(NC(=O)c3ccc(CNC(C)C(C)C)cc3)s2)cc1C(=O)N1CCN(C(C)=O)CC1 (centres undefined) [ITK inhibitor] | -4.78 | -4.73
15 | Cn1c(=O)n(-c2ccc(C(C)(C)C#N)cc2)c2c3cc(-c4cnc5ccccc5c4)ccc3ncc21 [BEZ235] | -6.88 | -5.33
16 | CC1=CC=C(C=C1)\C2=N\C3=CC=C(Cl)C=C3OC2 [AR7] | -5.03 | -5.03
17 | CC(C)c1cnn2c(NCc3ccccc3)cc(N[C@@H](CO)[C@H](O)CO)nc12 [BS-194] | -6.73 | -6.58
18 | Clc1ccc(C2(c3ccc(-c4cn[nH]c4)cc3)CCNCC2)cc1 [AT-7867] | -4.88 | -4.73
19 | C[C@@H]1C[C@H]2[C@@H]3CC\C4=C\C(=O)\C=C/[C@]4(C)[C@@]3(Cl)[C@@H](O)C[C@]2(C)[C@@]1(OC(=O)C5=CC=CO5)C(=O)CCl [Mometasone furoate] | -4.83 | -5.03
20 | COc1ccc2c(c1OC)C(=O)O[C@H]2[C@H]1c2c(cc3c(c2OC)OCO3)CCN1C [Noscapine] | -6.78 | -6.63
21 | C[N]1C=NC=C1[C@@](N)(C2=CC=C(Cl)C=C2)C3=CC=C4N(C)C(=O)\C=C(\C5=CC=CC(=C5)Cl)C4=C3 [Tipifarnib] | -4.83 | -4.83

Row | SMILES | AC50 for growth inhibition (log10 M) (SB.mhdgc-1) | AC50 for growth inhibition (log10 M) (SB.msgc-1)
22 | Cc1c(CCOc2ccc(C(=O)O)cc2)c2cc(Cl)ccc2n1C(c1ccccc1)c1ccccc1 [CDIBA] | -4.73 | -4.98
23 | OCCN1CCN(CCCN2c3ccccc3Sc3ccc(C(F)(F)F)cc32)CC1 [Fluphenazine hydrochloride] | -4.83 | -4.78
24 | O=C(CC12CC3CC(CC(C3)C1)C2)Nc1cccc2nc(NCCNCCO)ccc12 | -4.83 | -4.78
25 | N=C1S/C(=C\c2ccc(-c3ccc4c(c3)C(=O)NC4=O)o2)C(=O)N1c1ccc(Br)cc1 [Bioymifi] | -5.28 | -5.43
26 | CCOC(=O)[C@H](CCc1ccccc1)N[C@H]1CS[C@H](c2cccs2)CN(CC(=O)O)C1=O.Cl [Temocapril hydrochloride] | -6.28 | -5.88
27 | CCCCc1nc2cc(/C=C/C(=O)NO)ccc2n1CCN(CC)CC [Pracinostat] | -5.33 | -6.88
28 | N#CCNC(=O)c1ccc(-c2ccnc(Nc3ccc(N4CCOCC4)cc3)n2)cc1 [CYT387] | -4.78 | -4.73
29 | Cc1ccc([S+](=O)([O-])Nc2cc(Cl)ccc2C(=O)Nc2nc(-c3ccccc3)cs2)cc1 | -4.68 | -5.28
30 | C[C@]1(CO)CN(c2cc(C(=O)Nc3ccc4c(c3)-c3c(c(C(N)=O)nn3-c3ccc(F)cc3)CC4)c(Cl)cn2)C[C@@]1(C)CO [PF-184] | -5.43 | -5.08
31 | CC[C@@]1([C@@H]2O[C@@H]([C@H]3O[C@@](O)(CO)[C@H](C)C[C@@H]3C)C[C@@H]2C)CC[C@H]([C@]2(C)CC[C@]3(C[C@H](O)[C@@H](C)[C@@H]([C@@H](C)[C@@H](OC)[C@H](C)C(=O)[O-])O3)O2)O1 [Monensin sodium salt] | -6.99 | -6.94
32 | COc1cc2nccc(Oc3ccc(NC(=O)Nc4cc(C)on4)c(Cl)c3)c2cc1OC [Tivozanib] | -5.28 | -5.58
33 | C[N]1C=C(C2=CC=CC=C12)\C3=C(\C(=O)NC3=O)C4=C[N](C5CCN(CC5)CC6=NC=CC=C6)C7=C4C=CC=C7 [Enzastaurin] | -4.98 | -4.98
34 | CNC(=O)[C@H](Cc1ccccc1)NC(=O)[C@H](CC(C)C)[C@H](CSc1cccs1)C(=O)NO [Batimastat] | -4.68 | -4.93
35 | ClC1=CC\2=C(NC(=O)\C(=C2N[C@@H]3CN4CCC3CC4)C5=NC6=C([NH]5)C=CC=C6)C=C1 [CHIR-124] | -6.08 | -6.53
36 | CO[C@@H]1[C@@H](O)[C@H](O)[C@@H](n2c3c(Cl)cccc3c3c4c(c5c6cccc(Cl)c6[nH]c5c32)C(=O)NC4=O)O[C@H]1CO [Rebeccamycin] | -6.83 | -6.43
37 | C[C@H]1[C@@H](OC(=O)CCC(=O)O)O[C@@H]2O[C@@]3(C)CC[C@H]4[C@H](C)CC[C@@H]1[C@@]24OO3 [Artesunate (AS)] | -5.03 | -5.18
38 | N#C/C(=C1/Nc2ccccc2S1)c1ccnc(OCc2ccc(CN3CCOCC3)cc2)n1 | -7.43 | -5.98
39 | Cc1ccc(C(=O)Nc2cccc(C(F)(F)F)c2)cc1-c1ccc2nc(NCCN3CCOCC3)ncc2c1 [AMG-47a] | -5.28 | -5.03
40 | CCOC(=O)N1CCN(/[N+]([O-])=N/Oc2cc(O/N=[N+](\[O-])N3CCN(C(=O)OCC)CC3)c([N+](=O)[O-])cc2[N+](=O)[O-])CC1 [Double JS-K] | -5.03 | -4.63
41 | O=C(NOCC1CC1)c1ccc(F)c(F)c1Nc1ccc(I)cc1Cl | -4.78 | -4.83
42 | COc1cc2nccc(Oc3ccc(NC(=O)C4(C(=O)Nc5ccc(F)cc5)CC4)cc3)c2cc1OC [Cabozantinib] | -6.33 | -5.48
